Data from patent publication US20220079876A1, “OCULAR IMPLANT CONTAINING A TYROSINE KINASE INHIBITOR” (Ocular Therapeutix, Inc., priority 2020, published 2022).
≈ marks a conversion by molar mass, not a printed value.

Assays:
[1] = system: VEGF-induced vascular leakage; test: VEGF challenge, vascular leakage scored by fluorescein angiography; format: in vivo, Dutch belted rabbits; conditions: rabbit; 1.25 mg Avastin intravitreal only (group 3)
[2] = 1.25 mg intravitreal dose (Sinapis et al., 2011); cited from earlier work
[3] = in vivo; cited from earlier work
[4] = In vitro axitinib release under non-sink simulated physiological conditions; format: physicochemical; conditions: pH 7.2, aqueous buffer, thermodynamic from solid; PBS from control implant release after 20 or 30 days at 37° C.
Description: Three exemplarily selected implant formulations were examined (Table 1). Implant variants #1 and 2 were examined using one implant, implant variant #3 using one and two implants (four conditions in total). All conditions were conducted in duplicate.
In vitro released and non-released axitinib was determined for each group without (control) and with daily release media sampling.
For control implant release, samples were placed in tubes. Five mL of PBS (pH 7.2) were added to each tube on day 0 and the tubes were covered with a lid. Samples were then placed in a 37° C. incubator and gently rocked for 20 (1× implant #3) or 30 days (implant #1 and #2, 2× implant #3). At the end of the test period, the PBS was removed (1 mL PBS was saved for testing). One mL of ethanol was added to the residual sample. Both PBS samples and residual samples were tested for axitinib amount released.
For daily implant release, samples were placed in tubes. Five mL of PBS were added to each tube on day 0 and the tubes were covered with a lid. Samples were then placed in a 37° C. incubator and rocked gently. After 24 hours, 4 mL of PBS were removed from each sample from which 1 mL was used for testing and the remaining 3 mL were disposed. Four mL of fresh PBS were added back into each tube. This process was repeated for 20 (1× implant #3) or 30 days (implant #1 and #2, 2× implant #3). […]

[5] = Rugo et al. 2005; cited from earlier work

In the case of Avastin®: anti-VEGF therapeutic, the “Duration of effect post injection” value [1] is given as ≤ 3 months, the “Vascular leakage after VEGF challenge, after 3 months” value [1] is given as “vascular leakage re-occurred” and the Half-life in rabbits [2] is given as 158 h.
In the case of “aflibercept: anti-VEGF agent, aflibercept injection by Regeneron”, the “t1/2 in the human eye” value [3] is given as “several days”.
In the case of CNC(=O)c1ccccc1Sc1ccc2c(/C=C/c3ccccn3)n[nH]c2c1 [axitinib, N-methyl-2-[3-((E)-2-pyridin-2-yl-vinyl)-1H-indazol-6-ylsulfanyl]-benzamide], the solubility [4] is listed as 0.24 to 0.4 µg/mL (≈ 0.621 to 1.03 µM) and the “Clearance half-life (t1/2)” value [5] is listed as “a few hours”.
For “ranibizumab: anti-VEGF agent, ranibizumab injection by Genentech”, the “t1/2 in the human eye” value [3] is listed as “several days”.
